Assay results as given in US5059589A, “Glaucoma treatment” (Abbott Laboratories, priority 1990, dated 1991).
Counter-ions that a name gives are not always drawn.

System: intraocular pressure in rabbits
Assay: Effects of topically administered renin inhibiting compounds on intraocular pressure of rabbits
Format: in vivo, Male albino, New Zealand rabbits
Conditions: topical 0.1 ml, 0.1% (w/v)
Description: The antiglaucoma activity of the compounds was tested by measuring the effect on intraocular pressure in rabbits as described by Tinjum, A.M., Acta Ophthalmologica, 50, 677 (1972). Male albino, New Zealand rabbits were placed in restraining devices and the intraocular pressure was measured with an applamatic tonometer. Exactly 0.1 ml of an isotonic saline solution containing a test compound was instilled into the conjuctival sac and the intraocular pressure was measured at 5, 15, 30, 60, 90, 120 and 180 minutes afterwards.

[1] = 15 minutes after administration
[2] = 30 minutes after administration
[3] = 60 minutes after administration
[4] = 90 minutes after administration
[5] = 120 minutes after administration
[6] = 180 minutes after administration

Compound	Mean Intraocular Pressure in mmHg (0 minutes after administration) [mmHg]	Mean Intraocular Pressure in mmHg (5 minutes after administration) [mmHg]	Mean Intraocular Pressure in mmHg [1] [mmHg]	Mean Intraocular Pressure in mmHg [2] [mmHg]	Mean Intraocular Pressure in mmHg [3] [mmHg]	Mean Intraocular Pressure in mmHg [4] [mmHg]	Mean Intraocular Pressure in mmHg [5] [mmHg]	Mean Intraocular Pressure in mmHg [6] [mmHg]
CC(C)(C)OC(=O)NC(Cc1ccccc1)C(=O)NC(Cc1cnc[nH]1)C(=O)N[C@@H](CC1CCCCC1)[C@@H](O)[C@@H](O)CN (stereo partly drawn) [Compound X, Boc-Phe-His amide (4-amino) of (2S,3R,4S) 1,4-diamino-2,3-dihydroxy-5-cyclohexylpentane]	20.8	20.6	20.6	15.9	15.1	19.1	20.6	21.7
C=C(C[C@H](O)[C@H](O)[C@H](CC1CCCCC1)NC(=O)C(Cc1cnc[nH]1)NC(=O)C(Cc1ccccc1)NC(=O)OC(C)(C)C)C(=O)[O-].[Na+] (stereo partly drawn) [Compound XII, Boc-Phe-His amide of (4S,5R,6S)-6-amino-7-cyclohexyl-4,5-dihydroxy-1-hepten-2-oic acid sodium salt]	19.3	12.5	10.3	12.4	12.3	12.3	14.6	16.3
CC(C)CC(NC(=O)C(Cc1ccccc1)NC(=O)CCCC(=O)O)C(=O)N[C@@H](CC1CCCCC1)[C@@H](O)[C@@H](O)CC(C)C (stereo partly drawn) [Compound XIII, 4-Carboxybutyroyl-Phe-Leu amide of 2(S)-amino 1-cyclohexyl 3(R),4(S)-dihydroxy 6-methylheptane]	19.5	17.6	17.2	15.6	16.4	16.3	17.5	15.3
CC(C)C[C@H](O)[C@H](O)[C@H](CC1CCCCC1)NC(=O)[C@H](Cc1cnc[nH]1)NC(=O)[C@H](Cc1ccccc1)NC(=O)N1CCC(O)CC1 [Compound III, (1-(4 hydroxypiperidinyl)carbonyl)-Phe-His amide of 2(S)-amino 1-cyclohexyl-3(R),4(S) dihydroxy 6-methylheptane]	19.1	15.5	12.4	13.9	14.9	16.3	17.8	18.2
CCOC(=O)[C@H](C)NC(Cc1ccccc1)C(=O)NC(Cc1cnc[nH]1)C(=O)N[C@@H](CC1CCCCC1)[C@@H](O)[C@@H](O)CC(C)C (stereo partly drawn) [Compound XIV, (1(S)-(Ethoxycarbonyl)-ethyl)-Phe-His amide of 2 (S)-amino 1-cyclohexyl-3(R),4(S)-dihydroxy 6-methylheptane]	21.0	16.8	14.0	15.1	14.6	16.4	17.9	19.6
Boc-Phe-Histidinyl-4-amino-3-hydroxy 5-cyclohexylpentanoic acid amide of 2 methylbutylamine [Compound VII]	19.7	17.2	13.8	14.3	14.8	19.3	21.1	22.7
C=C(C[C@H](O)[C@H](CC1CCCCC1)NC(=O)C(Cc1cnc[nH]1)NC(=O)C(Cc1ccccc1)NC(=O)OC(C)(C)C)C(=O)NCCC(C)C (stereo partly drawn) [Compound IX, Boc-Phe-His amide of (4S,5S) N-(3-methylbutyl)-5-amino-6-cyclohexyl-1-hexen-4-ol-2-carboxamide]	22.2	22.5	18.1	15.8	19.5	22.4	24.3	24.2
CCN1C[C@@H]([C@H](O)[C@H](CC2CCCCC2)NC(=O)[C@H](Cc2cnc[nH]2)NC(=O)[C@@H](CC(=O)N(C)CCOCOCCOC)Cc2ccccc2)OC1=O [Compound IV, (2R)-2-benzyl-3-((2-methoxyethoxy-methoxyethyl)methylaminocarbonyl)propionyl-His amide of (2'S,1'R,5S)-3-ethyl-5-(1'-hydroxy 2'-amino-3'-cyclohexylpropyl) -oxazolidin-2-one]	18.2	14.5	13.0	13.3	14.2	16.3	14.9	16.2
CC(C)(C)OC(=O)NC(Cc1ccccc1)C(=O)NC(Cc1cnc[nH]1)C(=O)NC(CC1CCCCC1)C(O)CSC1CCCCC1 (stereo not drawn) [Compound VI, Boc-Phe-His amide of 3-amino-4 cyclohexyl 1 cyclohexylmercapto-2-hydroxybutane]	21.0	16.5	16.5	15.2	14.7	21.7	22.4	19.9
Boc-Phe-His amide of (2S,4S,1'R,2'S)-2-(2-amino-7-cyclohexyl-4,5-dihydroxyheptan-2-oic acid sodium salt [Compound XI]	18.5	13.4	11.4	10.6	14.6	16.1	15.7	19.0
CC[C@@H]1C(=O)OC[C@@H]1Cc1cncn1C [Pilocarpine, reference compound]	17.6	14.4	13.0	11.9	13.0	12.6	16.4	17.7
COc1ccc(C[C@H](NC(=O)CC(C)(C)N)C(=O)N[C@@H](Cc2cnc[nH]2)C(=O)N[C@@H](CC2CCCCC2)[C@@H](O)[C@@H](O)CC(C)C)cc1 [Compound II, H-((beta,betadimethyl)-beta-Ala)-(4 OCH3)Phe-His amide of 2(S)-amino-1-cyclohexyl-3(R),4(S) dihydroxy-6-methylheptane di-acetic acid salt]	18.4	15.0	13.5	13.2	13.4	17.1	19.0	17.2
CC(C)C[C@H](O)[C@H](O)[C@H](CC1CCCCC1)NC(=O)[C@H](Cc1cnc[nH]1)NC(=O)[C@H](Cc1ccccc1)NC(=O)N1CCOCC1 [Compound I, (4-morpholinyl)carbonyl Phe-His amide of 2(S) amino-1 cyclohexyl-(3R),4(S)dihydroxy-6-methylheptane]	19.0	18.2	16.5	12.2	13.9	15.1	16.8	20.4
CC(C)CC(=O)NCC[C@H](O)[C@H](CC1CCCCC1)NC(=O)C(Cc1cnc[nH]1)NC(=O)C(Cc1ccccc1)NC(=O)OC(C)(C)C (stereo partly shown) [Compound VIII]	19.4	17.0	16.5	15.4	18.4	21.2	20.5	21.9
